The supplement of paper PMC10307832

How the values were obtained:
Experiment in all cases: relative viability (nuclei count vs DMSO), 5 days (fraction); higher = more cells survive
201T = test system: 201T
Procedure, shortened: (§1)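 One day after seeding in 1536-well plates, lung cancer cell lines were dosed by pin tool. Dosing was either single-drug or a fixed anchor-drug dose plus five library-drug doses (not always all listed) in √10 steps. After 5 days, nuclei were stained in one fix-and-stain step and counted on 4× images, and relative viability is the nuclei count of treated wells over that of vehicle wells, given as the median of duplicate plates.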

ABC-1 = test system: ABC-1
Procedure, shortened: as §1

BEN = test system: BEN
Procedure, shortened: as §1

CAL-12T = test system: CAL-12T
Procedure, shortened: as §1

COR-L 105 = test system: COR-L 105
Procedure, shortened: as §1

COR-L23 = test system: COR-L23
Procedure, shortened: as §1

EKVX = test system: EKVX
Procedure, shortened: as §1

HARA = test system: HARA
Procedure, shortened: as §1

HCC-366 = test system: HCC-366
Procedure, shortened: as §1

LK-2 = test system: LK-2
Procedure, shortened: as §1

LU99A = test system: LU99A
Procedure, shortened: as §1

NCI-H1437 = test system: NCI-H1437
Procedure, shortened: as §1

NCI-H1650 = test system: NCI-H1650
Procedure, shortened: as §1

NCI-H1666 = test system: NCI-H1666
Procedure, shortened: as §1

NCI-H2009 = test system: NCI-H2009
Procedure, shortened: as §1

NCI-H2170 = test system: NCI-H2170
Procedure, shortened: as §1

NCI-H3122 = test system: NCI-H3122
Procedure, shortened: as §1

NCI-H441 = test system: NCI-H441
Procedure, shortened: as §1

NCI-H661 = test system: NCI-H661
Procedure, shortened: as §1

NCI-H727 = test system: NCI-H727
Procedure, shortened: as §1

NCI-H838 = test system: NCI-H838
Procedure, shortened: as §1

PC-14 = test system: PC-14
Procedure, shortened: as §1

SW 900 = test system: SW 900
Procedure, shortened: as §1

`O=C(O)c1ccc(-c2c[nH]c3ncc(-c4ccccc4)cc23)cc1C1CCCC1` + O=C(CCCCCCC(=O)Nc1ccccc1)NO [Vorinostat] (partner 1 µM) showed a relative viability (201T; first compound 0.04 µM) of 0.949, a relative viability (201T; first compound 0.1265 µM) of 0.963 and a relative viability (201T; first compound 0.4 µM) of 0.952. It also gave a relative viability (201T; first compound 1.265 µM) of 0.989, a relative viability (ABC-1; first compound 0.04 µM) of 1.12 and a relative viability (ABC-1; first compound 0.1265 µM) of 1.36. It also gave a relative viability (ABC-1; first compound 0.4 µM) of 1.31, a relative viability (ABC-1; first compound 1.265 µM) of 0.985 and a relative viability (BEN; first compound 0.04 µM) of 0.507. For the same compound, the relative viability (BEN; first compound 0.1265 µM) was 0.614, the relative viability (BEN; first compound 0.4 µM) was 0.475 and the relative viability (BEN; first compound 1.265 µM) was 0.505. For the same compound, the relative viability (CAL-12T; first compound 0.04 µM) was 0.721, the relative viability (CAL-12T; first compound 0.1265 µM) was 0.91 and the relative viability (CAL-12T; first compound 0.4 µM) was 0.73. It also gave a relative viability (CAL-12T; first compound 1.265 µM) of 0.668, a relative viability (COR-L 105; first compound 0.04 µM) of 0.912 and a relative viability (COR-L 105; first compound 0.1265 µM) of 0.942. It also gave a relative viability (COR-L 105; first compound 0.4 µM) of 0.773, a relative viability (COR-L 105; first compound 1.265 µM) of 0.921 and a relative viability (COR-L23; first compound 0.04 µM) of 0.468. The relative viability (COR-L23; first compound 0.1265 µM) was 0.403, the relative viability (COR-L23; first compound 0.4 µM) was 0.467 and the relative viability (COR-L23; first compound 1.265 µM) was 0.233. The relative viability (EKVX; first compound 0.04 µM) was 0.846, the relative viability (EKVX; first compound 0.1265 µM) was 0.758 and the relative viability (EKVX; first compound 0.4 µM) was 0.713. The relative viability (EKVX; first compound 1.265 µM) was 0.712, the relative viability (HARA; first compound 0.04 µM) was 0.558 and the relative viability (HARA; first compound 0.1265 µM) was 0.49. The relative viability (HARA; first compound 0.4 µM) was 0.568, the relative viability (HARA; first compound 1.265 µM) was 0.405 and the relative viability (HCC-366; first compound 0.04 µM) was 0.368. It also gave a relative viability (HCC-366; first compound 0.1265 µM) of 0.531, a relative viability (HCC-366; first compound 0.4 µM) of 0.394 and a relative viability (HCC-366; first compound 1.265 µM) of 0.403. It also gave a relative viability (LK-2; first compound 0.04 µM) of 0.333, a relative viability (LK-2; first compound 0.1265 µM) of 0.311 and a relative viability (LK-2; first compound 0.4 µM) of 0.385. The relative viability (LK-2; first compound 1.265 µM) was 0.199, the relative viability (LU99A; first compound 0.04 µM) was 0.583 and the relative viability (LU99A; first compound 0.1265 µM) was 0.46. The relative viability (LU99A; first compound 0.4 µM) was 0.469, the relative viability (LU99A; first compound 1.265 µM) was 0.421 and the relative viability (NCI-H1437; first compound 0.04 µM) was 0.842. The relative viability (NCI-H1437; first compound 0.1265 µM) was 0.814, the relative viability (NCI-H1437; first compound 0.4 µM) was 0.531 and the relative viability (NCI-H1437; first compound 1.265 µM) was 0.326. The relative viability (NCI-H1650; first compound 0.04 µM) was 0.418, the relative viability (NCI-H1650; first compound 0.1265 µM) was 0.513 and the relative viability (NCI-H1650; first compound 0.4 µM) was 0.538. The relative viability (NCI-H1650; first compound 1.265 µM) was 0.476, the relative viability (NCI-H1666; first compound 0.04 µM) was 1.04 and the relative viability (NCI-H1666; first compound 0.1265 µM) was 1.02. For the same compound, the relative viability (NCI-H1666; first compound 0.4 µM) was 1.08, the relative viability (NCI-H1666; first compound 1.265 µM) was 0.737 and the relative viability (NCI-H2009; first compound 0.04 µM) was 0.719. It also gave a relative viability (NCI-H2009; first compound 0.1265 µM) of 0.733, a relative viability (NCI-H2009; first compound 0.4 µM) of 0.744 and a relative viability (NCI-H2009; first compound 1.265 µM) of 0.635. It also gave a relative viability (NCI-H2170; first compound 0.04 µM) of 0.82, a relative viability (NCI-H2170; first compound 0.1265 µM) of 0.863 and a relative viability (NCI-H2170; first compound 0.4 µM) of 0.893. For the same compound, the relative viability (NCI-H2170; first compound 1.265 µM) was 0.734, the relative viability (NCI-H3122; first compound 0.04 µM) was 1.1 and the relative viability (NCI-H3122; first compound 0.1265 µM) was 1.07. It also gave a relative viability (NCI-H3122; first compound 0.4 µM) of 1.12, a relative viability (NCI-H3122; first compound 1.265 µM) of 0.855 and a relative viability (NCI-H441; first compound 0.04 µM) of 0.866. For the same compound, the relative viability (NCI-H441; first compound 0.1265 µM) was 0.837, the relative viability (NCI-H441; first compound 0.4 µM) was 0.615 and the relative viability (NCI-H441; first compound 1.265 µM) was 0.445. The relative viability (NCI-H661; first compound 0.04 µM) was 0.766, the relative viability (NCI-H661; first compound 0.1265 µM) was 0.763 and the relative viability (NCI-H661; first compound 0.4 µM) was 0.787. For the same compound, the relative viability (NCI-H661; first compound 1.265 µM) was 0.787, the relative viability (NCI-H727; first compound 0.04 µM) was 0.991 and the relative viability (NCI-H727; first compound 0.1265 µM) was 1.19. For the same compound, the relative viability (NCI-H727; first compound 0.4 µM) was 1.31, the relative viability (NCI-H727; first compound 1.265 µM) was 1.18 and the relative viability (NCI-H838; first compound 0.04 µM) was 0.68. It also gave a relative viability (NCI-H838; first compound 0.1265 µM) of 0.773, a relative viability (NCI-H838; first compound 0.4 µM) of 0.771 and a relative viability (NCI-H838; first compound 1.265 µM) of 0.544. For the same compound, the relative viability (PC-14; first compound 0.04 µM) was 0.733, the relative viability (PC-14; first compound 0.1265 µM) was 0.781 and the relative viability (PC-14; first compound 0.4 µM) was 0.786. For the same compound, the relative viability (PC-14; first compound 1.265 µM) was 0.723, the relative viability (SW 900; first compound 0.04 µM) was 0.602 and the relative viability (SW 900; first compound 0.1265 µM) was 0.611. It also gave a relative viability (SW 900; first compound 0.4 µM) of 0.582 and a relative viability (SW 900; first compound 1.265 µM) of 0.437.
